In US20100069481A1, “METHODS AND COMPOSITIONS FOR THE TREATMENT OF CANCER” (Bionovo, Inc., priority 2008, published 2010):

Key:
[1] = system: breast cancer cells (MDA MB 231, SKBr3); experiment: mode of cell death: Annexin V binding, DNA fragmentation; format: cell-based, human
Procedure: (§1) 1. Induction of the loss of the mitochondrial transmembrane potential (MTP). […] 2. Induction of reactive oxygen species (ROS). […] 3. […] 4. Compounds were tested for induction of DNA damage using test known as comet assay that allows detection of DNA damage in individual cells. […] 6. The mode of cell death (i.e., apoptosis versus necrosis) was studied using several criteria: conversion of cells to positivity for binding Annexin V; DNA fragmentation (characteristic of apoptotic death) and decrease in cellular ATP levels (commonly observed during necrotic death) (FIG. 5). 1. Induction of the loss of the mitochondrial transmembrane potential (MTP). […] 2. Induction of reactive oxygen species (ROS). […] 3. […] 4. Compounds were tested for induction of DNA damage using test known as comet assay that allows detection of DNA damage in individual cells. […] 6. The mode of cell death (i.e., apoptosis versus necrosis) was studied using several criteria: conversion of cells to positivity for binding Annexin V; DNA fragmentation (characteristic of apoptotic death) and decrease in cellular ATP levels (commonly observed during necrotic death) (FIG. 5).

[2] = system: breast cancer cells (MDA MB 231, SKBr3); experiment: mitochondrially derived superoxide, MitoSOX staining; format: cell-based, human
Procedure: as §1

[3] = system: breast cancer cells (MDA MB 231, SKBr3); experiment: DNA damage, comet assay; format: cell-based, human
Procedure: as §1

[4] = system: breast cancer cells (MDA MB 231, SKBr3); experiment: cellular ATP levels, ATP bioluminescence; format: cell-based, human
Procedure: as §1

[5] = system: breast cancer cells (MDA MB 231, SKBr3); experiment: induction of ROS, CM-H2DCFDA staining; format: cell-based, human
Procedure: as §1
DCFDA is nonfluorescent in reduced form and is readily membrane-permeant. Cellular esterases cleave its acetate groups. The thiol-reactive chloromethyl group then binds to cellular thiols, trapping the dye inside the cell, where oxidation converts it to the fluorescent form. […] It is relatively insensitive to oxidation by superoxide.
FIG. 1. […] The indicated compounds were added to cells at 20 μg/ml growth medium, followed by addition of 10 μM CM-H2 DCFDA. Inhibitor of mitochondrial respiration, NaN3, was added at 10 mM. After 30 minute incubation, cells were washed in PBS and analyzed on FACScan for fluorescence.

[6] = system: two different breast cancer cell lines; experiment: induction of ROS (fold), compounds alone and in combination; format: cell-based; details: Table 11
Procedure: In order to better understand the combined activities of the isolated species, several flavanones and flavones isolated from Scutellaria barbata were tested individually and in combination. The flavanones and flavones tested are depicted in FIG. 8. These compounds 1-8 from were tested for induction of ROS, DNA damage and cell death, as described in Example 2.
The results set forth in Tables 10 and 11 were confirmed by performing the experiments in two different breast cancer cell lines.

| SMILES | cell death and its mode [1] | generation of mitochondrial superoxide [2] | induction of DNA damage [3] | cellular ATP levels [4] | induction of cellular ROS [5] | Induction of ROS (fold) [6] |
| --- | --- | --- | --- | --- | --- | --- |
| O=c1cc(-c2ccc(O)cc2)oc2cc(O)cc(O)c12 [Apigenin] | induce significant cell death characterized as apoptotic | induce generation of superoxide whose origin is identified as mitochondrial | do not induce DNA damage | slight but consistent increase in ATP levels | – | – |
| O=C1CC(c2ccc(O)cc2)Oc2cc(O)c(O)c(O)c21 (stereo not drawn) [Carthamidin] | – | – | induce DNA damage | – | induce ROS, but of extra-mitochondrial origin | – |
| O=C1CC(c2ccc(O)cc2)Oc2c(O)c(O)cc(O)c21 (stereo not drawn) [Isocarthamidin] | – | – | induce DNA damage | – | induce ROS, but of extra-mitochondrial origin | – |
| O=c1cc(-c2ccc(O)cc2)oc2c(O)c(O)cc(O)c12 [Isoscutellarein] | cell death that has hallmarks of programmed necrosis | – | induce DNA damage | – | induce ROS, but of extra-mitochondrial origin | – |
| O=c1cc(-c2ccc(O)cc2)oc2cc(O)c(O)c(O)c12 [Scutellarein] | cell death that has hallmarks of programmed necrosis | – | induce DNA damage | – | induce ROS, but of extra-mitochondrial origin | – |
| O=c1cc(-c2ccc(O)cc2)oc2cc(O)cc(O)c12 [cmpd 4] | – | – | – | – | – | 0.6 fold |
